Measured values reported in publication PMC7819857, “Identification of Inhibitors of Integrin Cytoplasmic Domain Interactions With Syk” (Frontiers in Immunology, 2021).

Test system: IL-1β gene expression in THP-1 cells
Experiment: Quantitative PCR of adhesion-dependent IL-1β expression in THP-1 cells
Format: cell-based, human
Settings: 100 µM loaded cells, plated on CS-1, 4 h, qPCR
Procedure: THP-1 cells (2 × 10^6 per treatment group) that were glycerol loaded with ceftazidime (100 µM) or vehicle control (as described above) were plated on CS-1 peptide (10 µg/ml; 6-well plates) in serum-free RPMI-1640. Control cells were also kept in suspension. Plated and suspension cells were incubated for 4 h at 37°C. After incubation, the medium was removed, and RNA was isolated from cells with a Qiagen RNA extraction kit. After cDNA synthesis, quantitative real-time PCR was used to determine the relative gene expression levels of IL-1β and monocyte chemoattractant protein (MCP)-1 in THP-1 cells adhered to CS-1 in the presence of vehicle or ceftazidime relative to that of cells in suspension. The cycle threshold (Ct) results generated were analyzed according to the comparative Ct method (2^-ΔΔCt), where ΔCt is the difference between the CT value of target versus GAPDH control, and ΔΔCt is the difference between the ΔCt values of a given treated adherent cell sample and that of cells in suspension. Statistical differences between the two treatment groups for each target were determined by a two-tailed, unpaired Student t test using GraphPad Prism 7.04 statistical software.
Figure 6 Selective inhibition of integrin signaling by ceftazidime. […] Data are expressed as mean ± range from duplicate determinations. […] Kinase activity is expressed as percent of maximum signal. […]

CC(C)(O/N=C(\C(=O)N[C@@H]1C(=O)N2C(C(=O)[O-])=C(C[n+]3ccccc3)CS[C@H]12)c1csc(N)n1)C(=O)O [ceftazidime]
adhesion-dependent induction of the expression of IL-1β: significantly inhibited
